Data published in ChEMBL document CHEMBL1777779, “Discovery of novel quaternary ammonium derivatives of (3R)-quinuclidinyl carbamates as potent and long acting muscarinic antagonists” (Bioorg Med Chem Lett, 2011).

How the values were obtained:
[1] = target: T1, Muscarinic acetylcholine receptor M1 (Homo sapiens, UniProt P11229); assay: Displacement of [3H]NMS from human muscarinic M1 receptor expressed in CHO-K1 cells after 1 hr by scintillation counting; assay type: cell-based
T1 sequence (P11229 whole entry): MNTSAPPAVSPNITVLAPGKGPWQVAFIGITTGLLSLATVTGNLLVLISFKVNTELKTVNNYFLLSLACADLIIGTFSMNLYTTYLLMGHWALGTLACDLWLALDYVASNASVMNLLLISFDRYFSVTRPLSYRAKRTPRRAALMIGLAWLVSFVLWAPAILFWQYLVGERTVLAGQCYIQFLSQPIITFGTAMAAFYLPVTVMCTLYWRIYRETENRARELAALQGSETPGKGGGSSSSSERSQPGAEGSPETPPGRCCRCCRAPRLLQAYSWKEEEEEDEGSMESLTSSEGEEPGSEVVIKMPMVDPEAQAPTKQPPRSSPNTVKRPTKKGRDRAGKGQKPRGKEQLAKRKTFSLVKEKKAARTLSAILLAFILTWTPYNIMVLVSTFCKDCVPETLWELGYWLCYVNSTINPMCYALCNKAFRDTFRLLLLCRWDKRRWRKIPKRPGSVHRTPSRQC

[2] = target: Muscarinic acetylcholine receptor M1 and M3 (Homo sapiens) (UniProt P20309+P11229); assay: Selectivity ratio of IC50 for human muscarinic M1 receptor to IC50 for human muscarinic M3 receptor
Muscarinic acetylcholine receptor M1 and M3 (Homo sapiens), sequence (P20309 whole entry, looked up, one chain of several): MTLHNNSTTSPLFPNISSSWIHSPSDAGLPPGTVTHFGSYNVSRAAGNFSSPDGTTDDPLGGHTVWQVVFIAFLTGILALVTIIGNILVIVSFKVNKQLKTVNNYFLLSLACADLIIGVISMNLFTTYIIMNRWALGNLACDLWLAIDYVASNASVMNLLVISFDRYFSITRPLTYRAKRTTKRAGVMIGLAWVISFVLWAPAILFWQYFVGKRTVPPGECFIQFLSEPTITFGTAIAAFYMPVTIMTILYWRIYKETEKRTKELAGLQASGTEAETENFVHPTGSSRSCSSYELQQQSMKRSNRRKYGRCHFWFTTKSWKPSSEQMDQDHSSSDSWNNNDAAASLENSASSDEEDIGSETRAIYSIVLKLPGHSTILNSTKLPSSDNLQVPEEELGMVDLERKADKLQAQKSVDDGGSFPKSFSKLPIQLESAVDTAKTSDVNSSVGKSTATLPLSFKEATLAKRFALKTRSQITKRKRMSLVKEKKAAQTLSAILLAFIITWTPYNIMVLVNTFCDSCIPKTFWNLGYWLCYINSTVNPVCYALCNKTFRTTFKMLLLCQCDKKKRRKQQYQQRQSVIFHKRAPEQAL

[3] = target: Muscarinic acetylcholine receptors; M2 & M3 (Homo sapiens) (UniProt P20309+P08172); assay: Selectivity ratio of IC50 for human muscarinic M2 receptor to IC50 for human muscarinic M3 receptor
Muscarinic acetylcholine receptors; M2 & M3 (Homo sapiens), sequence (P20309 whole entry, looked up, one chain of several): as above

[4] = target: T2, Muscarinic acetylcholine receptor M2 (Homo sapiens, UniProt P08172); assay: Displacement of [3H]NMS from human muscarinic M2 receptor expressed in CHO-K1 cells after 1 hr by scintillation counting; assay type: cell-based
T2 sequence (P08172 whole entry): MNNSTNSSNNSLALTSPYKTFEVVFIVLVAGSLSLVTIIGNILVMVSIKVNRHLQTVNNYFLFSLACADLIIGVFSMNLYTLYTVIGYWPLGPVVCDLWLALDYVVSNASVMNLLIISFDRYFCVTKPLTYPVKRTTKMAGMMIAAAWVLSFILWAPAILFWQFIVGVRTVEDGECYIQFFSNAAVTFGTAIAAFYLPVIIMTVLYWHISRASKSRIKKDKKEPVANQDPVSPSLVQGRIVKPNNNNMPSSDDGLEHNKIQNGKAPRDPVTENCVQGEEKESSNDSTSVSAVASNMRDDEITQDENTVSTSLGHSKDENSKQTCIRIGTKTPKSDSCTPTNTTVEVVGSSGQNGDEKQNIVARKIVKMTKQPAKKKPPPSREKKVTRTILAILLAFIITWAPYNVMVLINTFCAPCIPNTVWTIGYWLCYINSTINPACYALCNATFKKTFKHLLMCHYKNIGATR

[5] = target: Muscarinic acetylcholine receptor M3 (Homo sapiens, UniProt P20309); assay: Displacement of [3H]NMS from human muscarinic M3 receptor expressed in CHO-K1 cells after 1 hr by scintillation counting; assay type: cell-based
Muscarinic acetylcholine receptor M3, sequence (P20309 whole entry): as the sequence (P20309 whole entry, looked up, one chain of several) above

Cavia porcellus [6] = assay: Inhibition of acetylcholine-induced bronchospasm in anesthetized Dunkin-Hartley guinea pig assessed as time required to recover 50% of maximum inhibitory effect at 1 mg/ml administered via nebulizer; assay type: functional
Cavia porcellus [7] = assay: Inhibition of acetylcholine-induced bronchospasm in anesthetized Dunkin-Hartley guinea pig assessed as time required to recover 50% of maximum inhibitory effect at 3 mg/ml administered via nebulizer; assay type: functional

Compound | IC50 [1] [nM] | Ratio IC50 [2] | Ratio IC50 [3] | IC50 [4] [nM] | IC50 [5] [nM] | Time (Cavia porcellus [6]) [h] | Time (Cavia porcellus [7]) [h]
CCCCCN(C(=O)O[C@H]1CN2CCC1CC2)c1ccccc1 | 0.8 | 0.5 | 8 | 13.6 | 1.7 |  | 
O=C(Nc1ccccc1-c1ccccc1)OC12CCN(CC1)CC2 | 3 | 0.5 | 2.4 | 14.5 | 6 |  | 
O=C(O[C@H]1CN2CCC1CC2)N(Cc1cccs1)c1ccccc1 | 0.4 | 0.7 | 3 | 1.8 | 0.6 | <4 | 
O=C(O[C@H]1CN2CCC1CC2)N(Cc1ccccc1)Cc1cccs1 | 8.8 | 0.4 | 3.95 | 88.9 | 22.5 |  | 
O=C(O[C@H]1C[N+]2(CCCc3cccs3)CCC1CC2)N(Cc1ccccc1)c1ccccc1.[Br-] | 1.4 | 2.3 | 12.7 | 7.6 | 0.6 | >6 | 
O=C(O[C@H]1CN2CCC1CC2)N(Cc1ccccc1)c1ccc(F)cc1 | 8.3 | 0.5 | 7.7 | 116 | 15 |  | 
O=C(O[C@H]1C[N+]2(CCCc3cccs3)CCC1CC2)N(Cc1cccs1)c1ccccc1.[Br-] | 1.6 | 3.2 | 6.4 | 3.2 | 0.5 | >6 | 
O=C(O[C@H]1CN2CCC1CC2)N(Cc1ccccc1)c1ccccc1 | 0.4 | 0.3 | 3.1 | 3.7 | 1.2 |  | 1.5
CCCCN(Cc1cccs1)C(=O)O[C@H]1CN2CCC1CC2 | 0.8 | 0.04 | 4.3 | 76.2 | 17.7 |  | 
Cc1cccc(N(Cc2cc(F)c(F)cc2F)C(=O)O[C@H]2C[N+]3(CCOc4ccccc4)CCC2CC3)c1.[Br-] | 2.4 | 2 | 23.3 | 28 | 1.2 | <6 | 
O=C(O[C@H]1CN2CCC1CC2)N(Cc1ccsc1)c1ccccc1 | 0.4 | 0.4 | 4.7 | 4.7 | 1 | <4 | 
O=C(O[C@H]1C[N+]2(CCOc3ccccc3)CCC1CC2)N(Cc1cc(F)c(F)c(F)c1)c1cccc(F)c1.[Br-] | 1.1 | 1.8 | 24 | 14.4 | 0.6 | >6 | 
O=C(O[C@H]1C[N+]2(CCCc3cccs3)CCC1CC2)N(Cc1ccsc1)c1ccccc1.[Br-] | 2 | 3.3 | 14 | 8.4 | 0.6 | >6 | 
O=C(O[C@H]1CN2CCC1CC2)N(Cc1cccc(F)c1)c1cccc(F)c1 | 1.5 | 0.6 | 11.2 | 26.8 | 2.4 |  | 
O=C(O[C@H]1CN2CCC1CC2)N(CCc1ccccc1)c1ccccc1 | 1 | 0.3 | 11.7 | 42.1 | 3.6 |  | 
CCCCN(C(=O)O[C@H]1C[N+]2(CCCc3cccs3)CCC1CC2)c1ccccc1.[Br-] | 2 | 3.3 | 18.2 | 10.9 | 0.6 | >6 | 
O=C(O[C@H]1CN2CCC1CC2)N(Cc1cc(F)c(F)c(F)c1)c1cccc(F)c1 [TARAFENACIN] | 0.9 | 0.6 | 64.9 | 97.3 | 1.5 |  | 
O=C(O[C@H]1C[N+]2(CCCc3ccccc3)CCC1CC2)N(Cc1ccccc1)c1ccccc1.[Br-] | 1.5 | 5 | 13.3 | 4 | 0.3 | >6 | 
